# According to US11117901B2, “Substituted pyrazolo[4,3-h]quinazolines as choline kinase inhibitors” (NERVIANO MEDICAL SCIENCES S.R.L., priority 2017, dated 2021):
# Like-named read-outs stand apart in the source and are kept apart here.
# Key:
# hChoKβ FL = biological target: T1, hChoKβ FL (Homo sapiens, UniProt Q9Y259); assay: Biochemical kinase inhibition assay (Kinase-Glo luminescent) on hChoKβ FL; settings: ATP 5 μM, choline 20 μM, 60 min rt
# T1 construct: hChoKβ full length (FL), corresponding to aminoacids 2-395; GST (N, cleaved yes); PreScission Protease recognition site (N); made in house; host or cells: Escherichia coli BL21pLysS (DE3)
# Protocol: (§1) HumanΔ49ChoKα ([…]Δ49N-hChoKα) cDNA fragment 362-1534, corresponding to aminoacids 50 457 (J. Mol. Biol. 2006, 364, 136-151), and hChoKβ full length (FL), corresponding to aminoacids 2-395 ((PLoS ONE 2009, 4, e7819), were amplified by PCR from human library and cloned, inserting upstream a Prescission Protease recognition site, in pDonor 221 vector, using the Gateway Technology® (Invitrogen). After sequence control, LR reaction was performed in the final expression pGEX 2Tg vector. Both the proteins were expressed in Escherichia coli BL21pLysS (DE3) strain in auto-induction (Kessler) medium in the presence of […] carbenicillin at 25° C. for 16 h. Cells were harvested by centrifugation, the pellet was re-suspended in Lysis buffer (50 mM Tris-HCl pH 7.8, 150 mM NaCl, 10% glycerol, 0.2% CHAPS, 20 mM DTT, Protease Inhibitor Cocktail Tablets from Roche Biochemicals) and lysed by Gaulin homogenizer (Niro Soavi). The lysate was cleared by centrifugation. The supernatant was added to GSH resin and let flow by gravity. The GSH resin was washed with 5 column volume (CV) of cold wash buffer (50 mM Tris-HCl pH 7.8, 150 mM NaCl, 10% glycerol), then with 10 CV of the same buffer containing 2 mM of DTT. Both GST-Δ49N-hChoKα and hChoKβ were subjected to on-column cleavage of the GST tag with Prescission Protease overnight. The eluted cleaved proteins were further purified by ion exchange (ResQ 6 mL chromatography column from GE healthcare) with a gradient from 50 to 500 mM NaCl in 30 CV. The fractions containing […]Δ49N-hChoKα or hChoKβ were pooled, concentrated and gel filtered on a Superdex200 16/60 (GE Healthcare). The final protein concentration was estimated using the Bradford assay. All the samples purified were resolved by SDS-PAGE.
# (§2) Biochemical Kinase inhibition Assay on Δ49N-hChoKα and hChoKβFL
# (§3) The biochemical activity of compounds against Δ49N-ChoKα and ChoK3 FL were determined using the Kinase-Glo™ Luminescent Kinase Assay (Promega cat. V6711). The assay is based on incubation of the recombinant Δ49N-hChoKα and hChoKβ FL produced in house, 2.2 nM and 30 nM, respectively, with the specific substrates, choline (Sigma-Aldrich-C7017) and ATP, followed by quantification, at the end of reaction time, of the residual not reacted ATP.
# (§4) Compounds were 3-fold serially diluted from 10 to 0.0005 μM, then incubated for 60 minutes at room temperature in the presence of ATP 5 μM, choline (5 μM for ChoKα and 20 μM for ChoKβ) and enzyme in a final volume of 19 μL of kinase buffer (50 mM Hepes pH 7.5, 10 mM MgCl2, 1 mM DTT, 3 μM Na3VO4 and 0.2 mg/mL BSA). The final concentration of DMSO was 1%. The assay was run in a robotized format on 384-well plates (Perkin Elmer cat. #6005301).
# (§5) At the end of the incubation, an amount of 19 μL of KinaseGlo Reagent was added to each well to stop the reaction and after 30 minutes the luminescence signal was measured using ViewLux reader (Perkin Elmer).
# (§6) All information about plate dilution, distribution and raw data of inhibition are tracked via barcode reading and stored in an Oracle DB. The data per each molecule are analyzed by an internally customized version of the SW package “Assay Explorer” which provides sigmoidal fittings of the ten-dilution curves for IC50 determination using a 4 parameter logistic equation: y=bottom+(top−bottom)/(1+10^((log IC50−x)*slope)) where x is the logarithm of the inhibitor concentration, y is the response; y starts at bottom and goes to top with a sigmoid shape.
# Δ49N-hChoKα = biological target: T2, Δ49N-hChoKα (Homo sapiens, UniProt P35790); assay: Biochemical kinase inhibition assay (Kinase-Glo luminescent) on Δ49N-hChoKα; settings: ATP 5 μM, choline 5 μM, 60 min rt
# T2 construct: cDNA fragment 362-1534, corresponding to aminoacids 50 457; GST (N, cleaved yes); PreScission Protease recognition site (N); made in house; host or cells: Escherichia coli BL21pLysS (DE3)
# Protocol: as §1, §2, §3, §4, §5, §6
# [1] = recombinant hChoKβ FL 30 nM, read-out: ChoKβ IC50
# [2] = recombinant Δ49N-hChoKα 2.2 nM, read-out: ChoKα IC50
# T1 sequence (Q9Y259 2-395): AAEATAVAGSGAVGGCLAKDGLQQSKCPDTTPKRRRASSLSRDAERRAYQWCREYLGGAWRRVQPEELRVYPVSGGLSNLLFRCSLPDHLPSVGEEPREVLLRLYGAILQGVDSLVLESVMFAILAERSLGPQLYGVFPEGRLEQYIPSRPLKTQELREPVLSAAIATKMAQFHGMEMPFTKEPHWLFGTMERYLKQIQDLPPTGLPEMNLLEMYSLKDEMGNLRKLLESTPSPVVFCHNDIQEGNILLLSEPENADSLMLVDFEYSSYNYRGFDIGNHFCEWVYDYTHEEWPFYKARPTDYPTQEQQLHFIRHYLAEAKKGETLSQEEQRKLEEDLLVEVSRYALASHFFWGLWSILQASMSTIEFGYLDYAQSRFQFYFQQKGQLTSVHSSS
# T2 sequence (P35790 50-439 isoform P35790-2): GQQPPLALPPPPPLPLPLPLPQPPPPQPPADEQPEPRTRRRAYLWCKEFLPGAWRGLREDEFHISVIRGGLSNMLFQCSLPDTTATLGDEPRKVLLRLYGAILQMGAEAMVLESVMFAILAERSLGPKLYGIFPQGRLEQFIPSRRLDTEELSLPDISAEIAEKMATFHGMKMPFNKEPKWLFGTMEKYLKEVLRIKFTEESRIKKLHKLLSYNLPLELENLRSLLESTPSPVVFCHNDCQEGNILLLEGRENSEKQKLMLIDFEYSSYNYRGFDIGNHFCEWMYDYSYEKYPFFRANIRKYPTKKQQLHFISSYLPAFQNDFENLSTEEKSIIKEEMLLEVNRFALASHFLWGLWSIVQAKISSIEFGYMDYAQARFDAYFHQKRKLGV
SMILES,IC50 (hChoKβ FL; [1]),IC50 (Δ49N-hChoKα; [2]),"IC50 (hChoKβ FL; ChoKβ IC50, recombinant hChoKβ FL 30 nM)","IC50 (Δ49N-hChoKα; ChoKα IC50, recombinant Δ49N-hChoKα 2.2 nM)"
CN(C)[C@@H]1CCN(C(=O)Cc2cccc(NC(=O)c3n[nH]c4c3C(C)(C)Cc3cnc(N)nc3-4)c2)C1 [compound 142],671 nM,110 nM,,
CC1(C)Cc2cnc(N)nc2-c2[nH]nc(C(=O)Nc3nc(CC(=O)N4CCC(N5CCCC(F)(F)C5)CC4)cs3)c21 [compound 222],1650 nM,10 nM,,
CC(C)(C)OC(=O)NC1CCN(Cc2cccc(NC(=O)c3n[nH]c4c3C(C)(C)Cc3cnc(N)nc3-4)c2)CC1 [compound 114],2390 nM,562 nM,,
CC1(C)Cc2cnc(N)nc2-c2[nH]nc(C(=O)Nc3nc(CC(=O)N4CCC(CO)CC4)cs3)c21 [compound 91],> 10000 nM,98 nM,,
CC1CCN(C2CCN(Cc3cccc(NC(=O)c4nn(C)c5c4C(C)(C)Cc4cnc(N)nc4-5)c3)CC2)CC1 [compound 111],> 10000 nM,640 nM,,
CN1CCC(NC(=O)c2ccc(NC(=O)c3n[nH]c4c3C(C)(C)Cc3cnc(N)nc3-4)cc2)CC1 [compound 8],565 nM,87 nM,,
CN(C)CCCNC(=O)Cc1csc(NC(=O)c2n[nH]c3c2C(C)(C)Cc2cnc(N)nc2-3)n1 [compound 95],126 nM,15 nM,,
CC1(C)Cc2cnc(N)nc2-c2[nH]nc(C(=O)Nc3nc4ccc(Cl)cc4s3)c21 [compound 64],4920 nM,306 nM,,
CN1CCN(C2CCN(C(=O)c3ccc(NC(=O)c4n[nH]c5c4C(C)(C)Cc4cnc(N)nc4-5)cc3)CC2)CC1 [compound 41],471 nM,70 nM,,
CC1(C)Cc2cnc(N)nc2-c2[nH]nc(C(=O)Nc3ccc(C(=O)NC4CCCC4)cc3)c21 [compound 29],71 nM,132 nM,,
CC1(C)Cc2cnc(N)nc2-c2[nH]nc(C(=O)Nc3nc(CN4CCC(N5CCCCC5)CC4)cs3)c21 [compound 143],2160 nM,142 nM,,
CC1CCN(C2CCN(C(=O)c3ccc(NC(=O)c4n[nH]c5c4C(C)(C)Cc4cnc(N)nc4-5)cc3)CC2)CC1 [compound 52],70 nM,3 nM,,
CC1(C)Cc2cnc(N)nc2-c2[nH]nc(C(=O)Nc3nc4ccccc4s3)c21 [compound 62],465 nM,85 nM,,
CNC1CCN(C(=O)Cc2csc(NC(=O)c3n[nH]c4c3C(C)(C)Cc3cnc(N)nc3-4)n2)CC1 [compound 119],66 nM,53 nM,,
CC1(C)Cc2cnc(N)nc2-c2[nH]nc(C(=O)Nc3cccc(CC(=O)N4CCC(N5CCCCC5)CC4)c3)c21 [compound 120],913 nM,19 nM,,
CCOC(=O)c1cnc(NC(=O)c2n[nH]c3c2C(C)(C)Cc2cnc(N)nc2-3)s1 [compound 81],5340 nM,428 nM,,
CC1CCN(C2CCN(C(=O)Cc3csc(NC(=O)c4n[nH]c5c4CC(C)(C)c4cnc(N)nc4-5)n3)CC2)CC1 [compound 231],104 nM,3 nM,,
CC1(C)Cc2cnc(N)nc2-c2[nH]nc(C(=O)Nc3ccc(C(=O)N4CCC(N5CCC(F)(F)CC5)CC4)cc3)c21 [compound 51],273 nM,151 nM,,
CN1CCC(NC(=O)c2cccc(NC(=O)c3n[nH]c4c3C(C)(C)Cc3cnc(N)nc3-4)c2)CC1 [compound 10],817 nM,173 nM,,
CC1(C)Cc2cnc(N)nc2-c2[nH]nc(C(=O)Nc3ccc(O)cc3)c21 [compound 105],398 nM,229 nM,,
CC1(C)Cc2cnc(N)nc2-c2[nH]nc(C(=O)Nc3nc(CC(=O)N4CCC(=O)CC4)cs3)c21 [compound 45],,,> 10000 nM,121 nM

SMILES,IC50 (hChoKβ FL; [1]),IC50 (Δ49N-hChoKα; [2]),"IC50 (hChoKβ FL; ChoKβ IC50, recombinant hChoKβ FL 30 nM)","IC50 (Δ49N-hChoKα; ChoKα IC50, recombinant Δ49N-hChoKα 2.2 nM)"
CC1(C)Cc2cnc(N)nc2-c2[nH]nc(C(=O)Nc3nc(CC(=O)N4CC[C@@H](O)C4)cs3)c21 [compound 87],> 10000 nM,149 nM,,
CC(C)(C)OC(=O)NC1CCN(Cc2ccc(NC(=O)c3n[nH]c4c3C(C)(C)Cc3cnc(N)nc3-4)cc2)CC1 [compound 133],1440 nM,536 nM,,
CC1(C)Cc2cnc(N)nc2-c2[nH]nc(C(=O)Nc3nc(CC(=O)N4CCC(C(N)=O)CC4)cs3)c21 [compound 90],> 10000 nM,161 nM,,
CCOC(=O)Cc1ccc(NC(=O)c2n[nH]c3c2C(C)(C)Cc2cnc(N)nc2-3)cc1 [compound 96],934 nM,198 nM,,
CN1CCC(NC(=O)Cc2cnc(NC(=O)c3n[nH]c4c3C(C)(C)Cc3cnc(N)nc3-4)s2)CC1 [compound 74],1350 nM,79 nM,,
CC1(C)Cc2cnc(N)nc2-c2[nH]nc(C(=O)Nc3ncc(CC(=O)NC4CCCCC4)s3)c21 [compound 73],604 nM,138 nM,,
Cn1nc(C(=O)Nc2nc(COC3CCN(C4CCCCCC4)CC3)cs2)c2c1-c1nc(N)ncc1CC2(C)C [compound 217],3550 nM,18 nM,,
CC1(C)Cc2cnc(N)nc2-c2[nH]nc(C(=O)Nc3ncc(C(=O)O)s3)c21 [compound 82],1730 nM,300 nM,,
CN(C)[C@@H]1CCN(C(=O)C2(c3csc(NC(=O)c4n[nH]c5c4C(C)(C)Cc4cnc(N)nc4-5)n3)CC2)C1 [compound 130],> 10000 nM,534 nM,,
CC1(C)Cc2cnc(N)nc2-c2[nH]nc(C(=O)Nc3nc(C(=O)O)cs3)c21 [compound 67],703 nM,81 nM,,
CC(C)(C)NC(=O)NC1CCN(C(=O)Cc2csc(NC(=O)c3n[nH]c4c3C(C)(C)Cc3cnc(N)nc3-4)n2)CC1 [compound 71],1950 nM,9 nM,,
"CNC(=O)c1nn(C)c2c1C(C)(C)Cc1cnc(N)nc1-2 [Ref. cpd 2, reference compound]",,> 10000 nM,,
CC1(C)Cc2cnc(N)nc2-c2[nH]nc(C(=O)Nc3ccc(CNc4ccc(CN5CCC(N6CCCCC6)CC5)cc4)cc3)c21 [compound 126],592 nM,3 nM,,
CC1CCN(C2CCN(C(=O)C(F)(F)c3csc(NC(=O)c4n[nH]c5c4C(C)(C)Cc4cnc(N)nc4-5)n3)CC2)CC1 [compound 191],303 nM,7 nM,,
CN(C)C1CCN(C(=O)c2ccc(NC(=O)c3n[nH]c4c3C(C)(C)Cc3cnc(N)nc3-4)cc2)CC1 [compound 14],37 nM,198 nM,,
CC1CCN(C2CCN(C(=O)c3ccc4nc(NC(=O)c5n[nH]c6c5C(C)(C)Cc5cnc(N)nc5-6)sc4c3)CC2)CC1 [compound 228],963 nM,9 nM,,
CC1(C)Cc2cnc(N)nc2-c2[nH]nc(C(=O)Nc3ncc[nH]3)c21 [compound 144],688 nM,546 nM,,
CC1(C)Cc2cnc(N)nc2-c2[nH]nc(C(=O)Nc3nc(CC(=O)N4CC[C@@H]([N+](C)(C)[O-])C4)cs3)c21 [compound 154],564 nM,14 nM,,
Cc1csc(NC(=O)c2nn(C)c3c2C(C)(C)Cc2cnc(N)nc2-3)n1 [compound 155],> 10000 nM,629 nM,,
"Cn1nc(C(N)=O)c2c1-c1nc(N)ncc1CC2(C)C [Ref. cpd 1, reference compound]",,> 10000 nM,,
